A short description of series [1]: Powder dissolution rate test. The series is classed as physicochemical. To be noted: 50 rpm, samples equivalent to 10 mg of curcumin. Here is the method: Powder dissolution experiments were conducted in pH 2.0 and pH 4.5 buffer solutions (containing 0.5% Tween 80) at a temperature of 37°C and a rotation speed of 50 rpm. The commercially available curcumin crystals and the powder of the curcumin-L-carnitine cocrystal from Example 3 were sieved through a 100-mesh screen to eliminate the effect of particle size on dissolution. Samples equivalent to 10 mg of curcumin were placed into the sample vessels of the dissolution apparatus, stirred, and samples were taken at 3, 5, 10, 15, 20, 30, 45, 60, 90, and 120 minutes. Concentrations were determined using HPLC. In the pH 2.0 buffer solution, the dissolution of the cocrystal at 3 minutes was about 7 times that of curcumin itself. In the pH 4.5 buffer solution, the dissolution of the cocrystal at 3 minutes was about 8 times that of curcumin itself.

Series [2] in a line: Bioavailability test (plasma pharmacokinetics after intragastric administration). Also noted: species or system Male SD rats. To be noted: rat, in vivo, 200 mg/kg. On the procedure:
Male SD rats (weighing 200-300 g) kept under good feeding conditions were used for the experiment. A total of 12 rats were used, evenly divided into 2 groups of 6 rats each. Commercially available curcumin crystals and the cocrystal obtained in Example 3 were uniformly dispersed in soybean oil and administered intragastrically as a suspension. The dosage was 200 mg/kg based on curcumin content. Blood samples (1 mL per time point) were collected from the orbital venous plexus at 20 minutes, 40 minutes, 1 hour, 1.5 hours, 2.5 hours, 4 hours, 6 hours, and 8 hours after administration. Plasma was separated by centrifugation within 0.5 hours of blood collection at 10,000 rpm for 5 minutes. 100 µL of plasma was precisely transferred, added with 50 µL of enzyme buffer solution, incubated at 37°C for 60 min, then added with 0.45 mL of methanol (containing 0.2% acetic acid), vortexed for 10 min, centrifuged at 14000 rpm for 3 min, and the supernatant was collected for HPLC analysis. Table 4. Pharmacokinetic parameters for commercially available curcumin crystals and curcumin-L-carnitine cocrystal.

As usually defined, the Cmax is the maximum level reached in the sampled fluid or tissue. As a reminder, the Tmax is the time at which the peak concentration occurs. Regarding “cocrystal of curcumin and L-carnitine [Curcumin-L-carnitine cocrystal]”, the “dissolution of the cocrystal at 3 minutes relative to curcumin itself” value in series [1] (pH 2.0 buffer solution containing 0.5% Tween 80, 37°C) was “about 7 times”. Also, the “dissolution of the cocrystal at 3 minutes relative to curcumin itself” value in series [1] (pH 4.5 buffer solution containing 0.5% Tween 80, 37°C) was “about 8 times”. Also, in series [2], the “maximum plasma concentration of curcumin relative to commercially available curcumin crystals” value turned out to be 10.7 times. For the same substance, in series [2] (po), the Cmax is 727.8 ng/mL and the Tmax was 20 min. The substance further had an AUC0-8h in series [2] (po, 8 h) of 692.5 ng·h/mL.

Source of the values: patent publication EP4810476A1, “COCRYSTAL OF CURCUMIN AND L-CARNITINE, AND PREPARATION METHOD THEREFOR AND USE THEREOF” (Cocrystal Health Industry (Zhejiang) Co., Ltd., priority 2023, dated 2025).
